Several values for one entry are separate records, joined by “and”; a condition that tells them apart may be missing. Identical values can stand only once.
Columns and labels:
[1] = tested on: human skeletal muscle culture (HSMC); assay: Glucose uptake in human skeletal muscle culture; type: cell-based; conditions: FIG. 2
JCR rat [2] = assay: Intraperitoneal glucose tolerance test / glucose disposal in JCR rats; type: in vivo; conditions: for Glucose Disposal: individual rat, 12 weeks daily treatment via water
Description: In order to test the effects of chromium and biotin, alone and in combination, on insulin sensitivity, a rodent model of “Syndrome X” was employed. Specifically, the JCR rat was utilized as it is a well-established model of obesity and insulin resistance.
After a baseline phase where accurate weights, body composition, and food intake were assessed, the animals were randomized to either control, CrPic alone, biotin alone, or CrPic/Biotin (See FIG. 5). Animals were weighed weekly and nutrients were given via daily water feeding at a specified dose/kg body weight. A 12-week period of daily treatment of animals was accomplished.
At specified time points during the study, glucose and insulin assessments were made. Specific assessments of carbohydrate metabolism were determined using an intraperitoneal glucose tolerance test and an insulin tolerance test. Animals were studied at 6 and 12 weeks with randomization. The specific metabolic testing was as follows:
Following baseline glucose and insulin measurements, 1.5 mg D50W per gram of body weight were given intraperitoneally. Tailsticks were initiated at 30, 60, 90, and 120 minutes following administration of glucose. The areas under curve for insulin and glucose were assessed. Eight animals in each group at 12 weeks were studied. Table 1 details the amount of glucose disposal for animals treated with CrPic and/or biotin at various dosages. Note, “L” represents the lean control; “O-contr” are the obese control rats; “LB” connotes low biotin treatments; “HB” represents high biotin treatments; “LC” and “HC” represent low and high doses of chromium, respectively. FIG. 6 is a graphic representation of the results of the IPGTT studies. […]

JCR rat [3] = assay: Lipid levels in JCR rats (chromium picolinate + biotin animal study); type: in vivo; parameters: Cholesterol / HDL-ch: unit not given here
Description: In order to test the effects of chromium and biotin, alone and in combination, on insulin sensitivity, a rodent model of “Syndrome X” was employed. Specifically, the JCR rat was utilized as it is a well-established model of obesity and insulin resistance. […] After a baseline phase where accurate weights, body composition, and food intake were assessed, the animals were randomized to either control, CrPic alone, biotin alone, or CrPic/Biotin (See FIG. 5). Animals were weighed weekly and nutrients were given via daily water feeding at a specified dose/kg body weight. A 12-week period of daily treatment of animals was accomplished. […] Specifically, CrPic versus control solutions were given in hyperinsulinemic, insulin-resistant, obese JCR rats. The study was initiated on animals at approximately 4 months of age, and animals were treated specifically for three months. […] 9). […] The improvement in insulin sensitivity was associated with a reduction in total. cholesterol levels compared to lean animals (See, e.g., Table 2, and FIGS. 10 & 11). The effect of the combination of chromium and biotin on lipid levels in the animal study is detailed in Table 2. Specifically, the effect of chromium and biotin on cholesterol levels, high density lipid cholesterol (HDL-ch) levels, and triglyceride levels are recorded in Table 2.

JCR rat [4] = assay: Insulin tolerance test in obese JCR rats; type: in vivo; conditions: FIG. 9
Description: (§1) At specified time points during the study, glucose and insulin assessments were made. Specific assessments of carbohydrate metabolism were determined using an intraperitoneal glucose tolerance test and an insulin tolerance test. Animals were studied at 6 and 12 weeks with randomization. The specific metabolic testing was as follows: Following baseline glucose assessment, insulin (5 units per kg body weight) was given intravenously. Repeat glucose assessments occurred at 5, 15, and 30 minute intervals following insulin administration. The rate of glucose disappearance was measured. Again, eight animals in each group at 12 weeks were studied. […] Specifically, CrPic versus control solutions were given in hyperinsulinemic, insulin-resistant, obese JCR rats. The study was initiated on animals at approximately 4 months of age, and animals were treated specifically for three months. […] 9). […] The improvement in insulin sensitivity was associated with a reduction in total. cholesterol levels compared to lean animals (See, e.g., Table 2, and FIGS. 10 & 11). The effect of the combination of chromium and biotin on lipid levels in the animal study is detailed in Table 2. Specifically, the effect of chromium and biotin on cholesterol levels, high density lipid cholesterol (HDL-ch) levels, and triglyceride levels are recorded in Table 2.

JCR rat [5] = assay: Fasting plasma insulin in obese JCR rats; type: in vivo; conditions: treated three months, end of study, FIG. 7
Description: as §1, with “randomization.” for “randomization. The specific metabolic testing was as follows: Following baseline glucose assessment, insulin (5 units per kg body weight) was given intravenously. Repeat glucose assessments occurred at 5, 15, and 30 minute intervals following insulin administration. The rate of glucose disappearance was measured. Again, eight animals in each group at 12 weeks were studied.”

[6] = tested on: diabetic and obese pre-diabetic subjects; conditions: cited from earlier work
JCR:LA-corpulent rat = conditions: obese, hyperinsulinemic, insulin resistant rodent model; cited from earlier work
[7] = Month 0, listed as High Chromium
[8] = Month 0, listed as Low Chromium
[9] = Month 1, listed as High Chromium
[10] = Month 1, listed as Low Chromium
[11] = Month 2, listed as High Chromium
[12] = Month 2, listed as Low Chromium
[13] = Month 3, listed as High Chromium
[14] = Month 3, listed as Low Chromium

chromium picolinate [CrPic]
glucose uptake [1]: enhances glucose uptake
Glucose Disposal (JCR rat [2]; listed as HC): 2.928 mg/dL/min and 3.25 mg/dL/min and 3.224 mg/dL/min and 3.011 mg/dL/min and 2.821 mg/dL/min
Glucose Disposal (JCR rat [2]; listed as LC): 2.334 mg/dL/min and 2.109 mg/dL/min and 2.066 mg/dL/min
Glucose Disposal, value per treatment group (JCR rat [2]; mean per treatment, 12 weeks): 2.928 mg/dL/min
glucose response to intraperitoneal glucose tolerance test (JCR rat [2]; obese JCR rats, FIG. 8A): significantly improved glucose response
insulin response to intraperitoneal glucose tolerance test (JCR rat [2]; obese rat, FIG. 8B): significantly lowered insulin response
Cholesterol (JCR rat [3]; [7]): 110
HDL-ch (JCR rat [3]; [7]): 43.1
Triglyceride (JCR rat [3]; [7]): 302 mg/dL
Cholesterol (JCR rat [3]; [8]): 109
HDL-ch (JCR rat [3]; [8]): 45.9
Triglyceride (JCR rat [3]; [8]): 319 mg/dL
Cholesterol (JCR rat [3]; [9]): 112
HDL-ch (JCR rat [3]; [9]): 43.2
Triglyceride (JCR rat [3]; [9]): 283 mg/dL
Cholesterol (JCR rat [3]; [10]): 93
HDL-ch (JCR rat [3]; [10]): 38.6
Triglyceride (JCR rat [3]; [10]): 267 mg/dL
Cholesterol (JCR rat [3]; [11]): 120
HDL-ch (JCR rat [3]; [11]): 51.5
Triglyceride (JCR rat [3]; [11]): 221 mg/dL
Cholesterol (JCR rat [3]; [12]): 130
HDL-ch (JCR rat [3]; [12]): 43.4
Triglyceride (JCR rat [3]; [12]): 256 mg/dL
Cholesterol (JCR rat [3]; [13]): 122
HDL-ch (JCR rat [3]; [13]): 48.1
Triglyceride (JCR rat [3]; [13]): 174 mg/dL
Cholesterol (JCR rat [3]; [14]): 137
HDL-ch (JCR rat [3]; [14]): 45.9
Triglyceride (JCR rat [3]; [14]): 242 mg/dL
total cholesterol levels (JCR rat [3]; obese JCR rats, FIGS. 10 & 11): reduction
Insulin sensitivity, insulin tolerance test (JCR rat [4]): significantly improved
fasting plasma insulin (JCR rat [5]): significantly lower fasting plasma insulin
glucose levels ([6]; Chinese diabetics): significantly lowered
insulin levels ([6]; Chinese diabetics): significantly lowered
insulin sensitivity ([6]; obese, pre-diabetic subjects, 1000 μg per day): enhance insulin sensitivity
insulin sensitivity (JCR:LA-corpulent rat): very robust effect on improving
lipid profiles (JCR:LA-corpulent rat): very robust effect on improving

Source: US20050214385A1, “Chromium/biotin treatment of dyslipidemia and diet-induced post prandial hyperglycemia” (priority 2001, published 2005)
